{"source": "the supplement of paper PMC3974653", "note": "Counter-ions that a name gives are not always drawn."}
{"system": "MTT (mouse pheochromocytoma)", "assay": "IC50 of cell viability (ATP content)", "conditions": "(24 or 48 h)", "method_in_brief": "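MTT mouse pheochromocytoma cells (5 µl of 200,000 cells/ml per well, white 1536-well plates, DMEM with 5% FBS and 1% horse serum) were cultured overnight at 37°C, 5% CO2. They then received 23 nl library compound in DMSO by pintool at 8 concentrations (final 0.5 nM to 46 µM) for 24 or 48 hrs. CellTiter-Glo ATP luminescence was read after 15 minutes. Signals were normalised to positive-control (100% inhibition) and DMSO (0%) wells, and IC50 came from a four-parameter logistic fit.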", "units": {"IC50 of cell viability": "µM"}}
{"compound": "CC(CCC(=O)O)C1CCC2C3C(=O)C[C@@H]4CC(=O)CC[C@@]4(C)C3CC(=O)[C@]12C", "note": "(stereo partly drawn) [DEHYDROCHOLIC ACID]", "IC50 of cell viability": "> 46"}
{"compound": "CCOC(=O)[C@H](CCc1ccccc1)N[C@@H](C)C(=O)N(CC(=O)O)C1Cc2ccccc2C1", "note": "[DELAPRIL HYDROCHLORIDE]", "IC50 of cell viability": "> 46"}
{"compound": "CC(C)Nc1cccnc1N1CCN(C(=O)c2cc3cc(N[S+](C)(=O)[O-])ccc3[nH]2)CC1", "note": "[DELAVIRDINE MESYLATE]", "IC50 of cell viability": "> 46"}
{"compound": "Cc1cc(O)cc2c1O[C@](C)(CCC[C@H](C)CCC[C@H](C)CCCC(C)C)CC2", "note": "[DELTA-TOCOPHEROL, D-]", "IC50 of cell viability": "> 46"}
{"compound": "COc1ccc(-c2cc(C(F)F)nn2-c2ccc([S+](N)(=O)[O-])cc2)cc1F", "note": "[DERACOXIB]", "IC50 of cell viability": "> 46"}
{"compound": "CC1OC(OC2CCC3(C)C(CCC4C3CC(O)C3(C)C(C5=CC(=O)OC5)CCC43O)C2)CC(O)C1OC1CC(O)C(OC2CC(O)C(OC3OC(CO)C(O)C(O)C3O)C(C)O2)C(C)O1", "note": "(stereo not drawn) [DESLANOSIDE]", "IC50 of cell viability": "> 46"}
{"compound": "CC(=O)O.N=C(N)NCCCC(NC(=O)C1CCCN1C(=O)C1CSSCCC(=O)NC(Cc2ccc(O)cc2)C(=O)NC(Cc2ccccc2)C(=O)NC(CCC(N)=O)C(=O)NC(CC(N)=O)C(=O)N1)C(=O)NCC(N)=O.O.O.O", "note": "(stereo not drawn) [DESMOPRESSIN ACETATE]", "IC50 of cell viability": "> 46"}
{"compound": "CC(=O)O.N=C(N)NCCCC(NC(=O)C1CCCN1C(=O)C1CSSCCC(=O)NC(Cc2ccc(O)cc2)C(=O)NC(Cc2ccccc2)C(=O)NC(CCC(N)=O)C(=O)NC(CC(N)=O)C(=O)N1)C(=O)NCC(N)=O.O.O.O", "note": "(stereo not drawn) [DESMOPRESSIN]", "IC50 of cell viability": "> 46"}
{"compound": "C#C[C@]1(O)CC[C@H]2[C@@H]3CCC4=CCCC[C@@H]4[C@H]3C(=C)C[C@@]21CC", "note": "[DESOGESTREL]", "IC50 of cell viability": "> 46"}
{"compound": "CC1(C)O[C@@H]2C[C@H]3[C@@H]4CC\\C5=C\\C(=O)\\C=C/[C@]5(C)[C@H]4C(O)C[C@]3(C)[C@@]2(O1)C(=O)CO", "note": "(stereo partly drawn) [DESONIDE]", "IC50 of cell viability": "> 46"}
{"compound": "CC(=O)OCC(=O)[C@H]1CC[C@H]2[C@@H]3CCC/4=C/C(=O)CC[C@]4(C)[C@H]3CC[C@]12C", "note": "[DESOXYCORTICOSTERONE ACETATE]", "IC50 of cell viability": "> 46"}
{"compound": "CC(C)(C)C(=O)OCC(=O)C1CCC2C3CCC4=CC(=O)CCC4(C)C3CCC12C", "note": "(stereo not drawn) [DESOXYCORTICOSTERONE PIVALATE]", "IC50 of cell viability": "> 46"}
{"compound": "CN1C(=O)[C@@H](NC(=O)c2cc3ccccc3[nH]2)N=C(c2ccccc2)c2ccccc21", "note": "[DEVAZEPIDUM]", "IC50 of cell viability": "> 46"}
{"compound": "C[C@@H]1CC2C3CCC4=CC(=O)C=C[C@]4(C)[C@@]3(F)[C@@H](O)C[C@]2(C)[C@@]1(O)C(=O)COC(=O)c1cccc(S(=O)(=O)[O-])c1", "note": "(stereo partly drawn) [DEXAMETHASONE METASULFOBENZOATE SODIUM]", "IC50 of cell viability": "> 46"}
{"compound": "[Na+].[Na+].CC1CC2C3CCC/4=C/C(=O)/C=C\\[C@@]4(C)[C@]3(F)C(O)C[C@]2(C)[C@]1(O)C(=O)CO[P]([O-])([O-])=O", "note": "(stereo partly drawn) [DEXAMETHASONE SODIUM PHOSPHATE]", "IC50 of cell viability": "> 46"}
{"compound": "CCCCC(=O)O[C@]1(C(=O)CO)[C@H](C)C[C@H]2[C@@H]3CCC4=CC(=O)C=C[C@]4(C)[C@@]3(F)[C@@H](O)C[C@@]21C", "note": "[DEXAMETHASONE VALERATE]", "IC50 of cell viability": "> 46"}
{"compound": "CCNC(C)Cc1cccc(C(F)(F)F)c1", "note": "(stereo not drawn) [DEXFENFLURAMINE]", "IC50 of cell viability": "> 46"}
{"compound": "CC(C)NCC(O)c1ccc(N[S+](C)(=O)[O-])cc1.Cl", "note": "(stereo not drawn) [DEXSOTALOLUM]", "IC50 of cell viability": "> 46"}
{"compound": "CC(=O)Oc1cccc2c1C(=O)c1c(OC(C)=O)cc(C(=O)O)cc1C2=O", "note": "[DIACERIN]", "IC50 of cell viability": "> 46"}
{"compound": "C=CCSSSCC=C", "note": "[DIALLYL TRISULFIDE]", "IC50 of cell viability": "> 46"}
{"compound": "C[N@H+]1CC[C@@]23C4OC5=C2C(=CC=C5OC(C)=O)C[C@H]1[C@@H]3\\C=C/[C@@H]4OC(C)=O", "note": "(stereo partly drawn) [DIAMORPHINE HYDROCHLORIDE]", "IC50 of cell viability": "> 46"}
{"compound": "COc1ccc(Cc2cnc(N)nc2N)cc1OC", "note": "[DIAVERIDINUM]", "IC50 of cell viability": "> 46"}
{"compound": "C\\C1=N\\C2=C(C=C(Cl)C=C2)[S+]([O-])(=O)N1", "note": "[DIAZOXIDE]", "IC50 of cell viability": "> 46"}
